Like-named read-outs stand apart in the source and are kept apart here.
Assays:
[1] = system: Phaeosphaeria nodorum (Septoria nodorum); assay: Phaeosphaeria nodorum (Septoria nodorum) / wheat / leaf disc preventative (glume blotch); type: in vivo; settings: Parastagonospora nodorum, foliar, wheat leaf segments cv. Kanzler, inoculated 2 days after application, assessed 5-7 days after application, read-out: inhibit fungal infestation (percent disease control compared to untreated)
Method: (§1) Leaf disks of various plant species (diameter 14 mm) are cut from plants grown in the greenhouse. The cut leaf disks are placed in multiwell plates (24-well format) onto water agar. Immediately after cutting the leaf disks are sprayed with a test solution.
(§2) Compounds to be tested are prepared as DMSO solutions (max. 10 mg/ml). Just before spraying the solutions are diluted to the appropriate concentrations with 0.025% Tween20. After drying, the leaf disks are inoculated with a spore suspension of the appropriate pathogenic fungus.
(§3) After an incubation time of 3-7 days after inoculation at defined conditions (temp, rH, light, etc.) according to the respective test system, the activity of the test compound is assessed as antifungal activity.
Wheat leaf segments cv. Kanzler are placed on agar in a multiwell plate (24-well format) and sprayed with the formulated test compound diluted in water. The leaf disks are inoculated with a spore suspension of the fungus 2 days after application. The inoculated test leaf disks are incubated at 20° C. and 75% rh under a light regime of 12 h light/12 h darkness in a climate cabinet and the activity of a compound is assessed as percent disease control compared to untreated when an appropriate level of disease damage appears in untreated check leaf disks (5-7 days after application).

[2] = system: Blumeria graminis f. sp. tritici (Erysiphe graminis f. sp. tritici); assay: Blumeria graminis f. sp. tritici / wheat / leaf disc preventative (powdery mildew on wheat); type: in vivo; settings: foliar, wheat leaf segments cv. Kanzler, inoculated 1 day after application, assessed 6-8 days after application, read-out: inhibit fungal infestation (percent disease control compared to untreated)
Method: as §1, §2, §3
Wheat leaf segments cv. Kanzler are placed on agar in a multiwell plate (24-well format) and sprayed with the formulated test compound diluted in water. The leaf disks are inoculated by shaking powdery mildew infected plants above the test plates 1 day after application. The inoculated leaf disks are incubated at 20° C. and 60% rh under a light regime of 24 h darkness followed by 12 h light/12 h darkness in a climate chamber and the activity of a compound is assessed as percent disease control compared to untreated when an appropriate level of disease damage appears on untreated check leaf segments (6-8 days after application).

[3] = system: Phytophthora infestans; assay: whole plant or invertebrate; type: in vivo; settings: in Solanum lycopersicum, foliar, read-out: inhibit fungal infestation (percent disease control compared to untreated)
[4] = system: Plasmopara viticola; assay: Plasmopara viticola / grape / leaf disc preventative; type: in vivo; settings: foliar, grape vine leaf disks, inoculated 1 day after application, assessed 6-8 days after application, read-out: inhibit fungal infestation (percent disease control compared to untreated)
Method: as §1, §2, §3
Grape vine leaf disks are placed on water agar in multiwell plates (24-well format) and sprayed with the formulated test compound diluted in water. The leaf disks are inoculated with a spore suspension of the fungus 1 day after application. The inoculated leaf disks are incubated at 19° C. and 80% rh under a light regime of 12 h light/12 h darkness in a climate cabinet and the activity of a compound is assessed as percent disease control compared to untreated when an appropriate level of disease damage appears in untreated check leaf disks (6-8 days after application).

[5] = system: Pythium ultimum; assay: Pythium ultimum / liquid culture (seedling damping off); type: cell-based; settings: Globisporangium ultimum, liquid culture in PDB, 24° C., 2-3 days after application, read-out: inhibit fungal infestation (inhibition of growth determined photometrically)
Method: Mycelia fragments or conidia suspensions of a fungus, prepared either freshly from liquid cultures of the fungus or from cryogenic storage, are directly mixed into nutrient broth. DMSO solutions of the test compound (max. 10 mg/ml) is diluted with 0.025% Tween20 by factor 50 and 10 μl of this solution is pipetted into a microtiter plate (96-well format) and the nutrient broth containing the fungal spores/mycelia fragments is then added to give an end concentration of the tested compound. The test plates are incubated at 24° C. and 96% rH in the dark. The inhibition of fungal growth is determined photometrically after 2-6 days and antifungal activity is calculated.
Mycelia fragments and oospores of a newly grown liquid culture of the fungus are directly mixed into nutrient broth (PDB potato dextrose broth). After placing a (DMSO) solution of test compound into a microtiter plate (96-well format), the nutrient broth containing the fungal mycelia/spore mixture is added. The test plates are incubated at 24° C. and the inhibition of growth is determined photometrically 2-3 days after application.

Structure (SMILES) | inhibition at 200 ppm [1] [%] | inhibition at 200 ppm [2] [%] | inhibition at 200 ppm [3] [%] | melting point [°C] | inhibition at 200 ppm [4] [%] | inhibition at 200 ppm [5] [%] | inhibition at 200 ppm ([1]; in Triticum aestivum) [%] | inhibition at 200 ppm ([2]; in Triticum aestivum) [%]
CO/N=C/C(C)(C)NC(=O)C(Oc1cc(C)c2ncc(C)cc2c1)SC (stereo not shown) [Compound 8, 2-(3,8-Dimethyl-quinolin-6-yloxy)-N-(2-methoxyimino-1,1-dimethyl-ethyl)-2-methylsulfanyl-acetamide] | ≥ 80 | ≥ 80 | ≥ 80 | 109 to 111 | ≥ 80 | ≥ 80 | – | –
CCc1cnc2c(F)cc(OC(SC)C(=O)NC(C)(C)/C=N/OC)cc2c1 (stereo not shown) [Compound 14, 2-(3-Ethyl-8-fluoro-quinolin-6-yloxy)-N-(2-methoxyimino-1,1-dimethyl-ethyl)-2-methylsulfanyl-acetamide] | ≥ 80 | ≥ 80 | ≥ 80 | 101 to 103 | ≥ 80 | ≥ 80 | – | –
C#CC(C)(COC)NC(=O)C(Oc1cc(C)c2ncc(C)cc2c1)SC (stereo not shown) [Compound 10, 2-(3,8-Dimethyl-quinolin-6-yloxy)-N-(1-methoxymethyl-1-methyl-prop-2-ynyl)-2-methylsulfanyl-acetamide] | ≥ 80 | ≥ 80 | ≥ 80 | 119 to 120 | – | ≥ 80 | – | –
C#CC(C)(C)NC(=O)C(Oc1cc(C)c2ncc(C=C)cc2c1)SC (stereo not shown) [Compound 36, N-(1,1-Dimethyl-prop-2-ynyl)-2-methylsulfanyl-2-(8-methyl-3-vinyl-quinolin-6-yloxy)-acetamide] | ≥ 80 | ≥ 80 | ≥ 80 | 115 to 117 | ≥ 80 | ≥ 80 | – | –
C#CC(C)(C)NC(=O)C(Oc1ccc2ncc(C)cc2c1)SC (stereo not shown) [Compound 2, N-(1,1-Dimethyl-prop-2-ynyl)-2-(3-methyl-quinolin-6-yloxy)-2-methylsulfanyl-acetamide] | – | ≥ 80 | ≥ 80 | 132 to 134 | ≥ 80 | ≥ 80 | – | –
C=Cc1cnc2c(C)cc(OC(SC)C(=O)NC(C)(C)/C=N/OC)cc2c1 (stereo not shown) [Compound 35, N-(2-Methoxyimino-1,1-dimethyl-ethyl)-2-methylsulfanyl-2-(8-methyl-3-vinyl-quinolin-6-yloxy)-acetamide] | ≥ 80 | ≥ 80 | ≥ 80 | 87 to 89 | ≥ 80 | ≥ 80 | – | –
C#CC(C)(C)NC(=O)C(Oc1cc(C)c2ncc(CC)cc2c1)SC (stereo not shown) [Compound 18, N-(1,1-Dimethyl-prop-2-ynyl)-2-(3-ethyl-8-methyl-quinolin-6-yloxy)-2-methylsulfanyl-acetamide] | ≥ 80 | ≥ 80 | ≥ 80 | 92 to 93 | ≥ 80 | ≥ 80 | – | –
C=Cc1cnc2ccc(OC(SC)C(=O)NC(C)(C)/C=N/OC)cc2c1 (stereo not shown) [Compound 34, N-(2-Methoxyimino-1,1-dimethyl-ethyl)-2-methylsulfanyl-2-(3-vinyl-quinolin-6-yloxy)-acetamide] | ≥ 80 | ≥ 80 | ≥ 80 | 114 to 116 | ≥ 80 | ≥ 80 | – | –
C#CC(C)(C)NC(=O)C(Oc1cc(Cl)c2ncc(CC)cc2c1)SC (stereo not shown) [Compound 25, 2-(8-Chloro-3-ethyl-quinolin-6-yloxy)-N-(1,1-dimethyl-prop-2-ynyl)-2-methylsulfanyl-acetamide] | ≥ 80 | – | ≥ 80 | 149 to 151 | ≥ 80 | – | – | –
CCc1cnc2c(C)cc(OC(SC)C(=O)NC(C)(C)/C=N/OC)cc2c1 (stereo not shown) [Compound 16, 2-(3-Ethyl-8-methyl-quinolin-6-yloxy)-N-(2-methoxyimino-1,1-dimethyl-ethyl)-2-methylsulfanyl-acetamide] | ≥ 80 | ≥ 80 | ≥ 80 | 105 to 106 | ≥ 80 | ≥ 80 | – | –
CCc1cnc2c(Cl)cc(OC(SC)C(=O)NC(C)(C)/C=N/OC)cc2c1 (stereo not shown) [Compound 24, 2-(8-Chloro-3-ethyl-quinolin-6-yloxy)-N-(2-methoxyimino-1,1-dimethyl-ethyl)-2-methylsulfanyl-acetamide] | – | ≥ 80 | ≥ 80 | 142 to 144 | ≥ 80 | ≥ 80 | – | –
C#CC(C)(C)NC(=O)C(Oc1ccc2ncc(C=C)cc2c1)SC (stereo not shown) [Compound 33, N-(1,1-Dimethyl-prop-2-ynyl)-2-methylsulfanyl-2-(3-vinyl-quinolin-6-yloxy)-acetamide] | ≥ 80 | ≥ 80 | ≥ 80 | 142 to 144 | ≥ 80 | ≥ 80 | – | –
CO/N=C/C(C)(C)NC(=O)C(Oc1ccc2ncc(C)cc2c1)SC (stereo not shown) [Compound 12, N-(2-Methoxyimino-1,1-dimethyl-ethyl)-2-(3-methyl-quinolin-6-yloxy)-2-methylsulfanyl-acetamide] | – | ≥ 80 | ≥ 80 | 130 to 132 | ≥ 80 | ≥ 80 | – | –
CSC(Oc1cc(C)c2ncc(C)cc2c1)C(=O)NC1(C)CCC1 (stereo not shown) [Compound 9, 2-(3,8-Dimethyl-quinolin-6-yloxy)-N-(1-methyl-cyclobutyl)-2-methylsulfanyl-acetamide] | – | ≥ 80 | ≥ 80 | 150 to 151 | ≥ 80 | ≥ 80 | – | –
C=Cc1cnc2c(F)cc(OC(SC)C(=O)NC(C)(C)/C=N/OC)cc2c1 (stereo not shown) [Compound 37] | – | – | ≥ 80 | 105 to 107 | ≥ 80 | ≥ 80 | ≥ 80 | ≥ 80
COCC#CC(C)(C)NC(=O)C(Oc1cc(C)c2ncc(C)cc2c1)SC (stereo not shown) [Compound 7, 2-(3,8-Dimethyl-quinolin-6-yloxy)-N-(4-methoxy-1,1-dimethyl-but-2-ynyl)-2-methylsulfanyl-acetamide] | – | ≥ 80 | ≥ 80 | 124 to 126 | ≥ 80 | ≥ 80 | – | –

Reference: patent US20130096156A1 (priority 2010, published 2013)
